The results in this text go back to US20050042213A1, “Methods and pharmaceutical compositions for modulating heparanase activation and uses thereof” (InSight Biopharmaceuticals Ltd., priority 2003, published 2005).

One experiment deals with T1, VEGF (Homo sapiens, UniProt P15692).
T1 sequence (P15692 27-191 isoform P15692-4): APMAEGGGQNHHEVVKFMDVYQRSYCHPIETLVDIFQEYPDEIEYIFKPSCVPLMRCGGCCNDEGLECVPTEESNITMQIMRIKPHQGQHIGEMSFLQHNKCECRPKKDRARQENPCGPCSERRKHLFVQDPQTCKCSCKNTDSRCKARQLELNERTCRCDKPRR
In words: Elisa assay for binding of VEGF to heparin. The conditions noted are these: inhibition of VEGF binding to heparin. As to the method: Elisa assay for determination of binding of VEGF to heparin—96 well microplates were coated overnight with Heparin-albumin (Lizard) and blocked with 1% BSA in PBS with 0.05% Tween and 0.01% thimerosal for 2 hrs. VEGF was added to the plates at a concentration of 2 ng/ml and incubated for 45 min. at 23-25° C. The amount of VEGF bound to heparin was detected using anti-VEGF monoclonal antibody (Sigma Cat. # V4758) at a concentration of 0.26 μg/ml and secondary antibodies Sheep anti-mouse IgG linked to horseradish peroxidase (1:2000). TMB (Pierce Cat. #34021) was used as a substrate for peroxidase.
(§1) The plates were read at 450 nm with a reference wavelength of 630 nm using a VERSAmax plate reader. […] Percent inhibition was calculated as compared with the control reactions pre-incubated with 1% DMSO only.

The next experiment deals with HT1080 cells. In words: In vitro assay of invasion inhibition (matrigel, BD BioCoat). The format is cell-based. The conditions noted are these: Homo sapiens, HT-1080. As to the method: In vitro assay of invasion inhibition—The ability of the compounds of the invention to inhibit cell invasion was determined quantitatively by the in vitro Endothelial Cell Migration assay using a BD BioCoat Angiogenesis System kit. The kit consisted of a 24-multiwell insert plate (FluoroBlok, BD Falcon) containing a microporous (3.0 μm pore size) polyethylene terephthalate (PET) membrane that was capable of blocking fluorescence completely (>99% efficiency). This membrane was uniformly coated with matrigel (BD Matrigel Matrix). The uniform layer of matrigel matrix served as a reconstituted authentic basement membrane in vitro, providing a true barrier to non-invasive cells, but allowing endothelial cells to attach to the membrane and freely migrate towards an angiogenic stimulus in the lower chamber of the insert plate. Post-labeling the cells with a fluorescent dye and measuring the fluorescence of invading cells in a fluorescent plate reader, provided quantitative measurement of cell invasion.
To cover the optimal seeding density for HT1080 cells, suspensions containing various cell concentrations were prepared: 1 ml of 3×10^5 cells/ml, 8 ml of 1.5×10^5 cells/ml and 1 ml of 0.75×10^5 cells/ml. […] Only those labeled cells that have invaded the matrigel and passed through the pores of the PET membrane, were detected.

In another experiment the target is T2, β-FGF (Homo sapiens, UniProt P09038).
T2 construct: purchased Sigma F0291
The experiment is described as follows: Elisa assay for binding of β-FGF to heparin. The conditions noted are these: inhibition of β-FGF binding to heparin. As to the method:
Elisa assay for determination of binding of β-FGF to heparin—96 well microplates were coated overnight with Heparin-albumin (Lizard) and blocked with 1% BSA in PBS with 0.05% Tween and 0.01% thimerosal for 2 hrs. β-FGF was added to the plates at a concentration of 0.8 ng/ml and incubated for 45 min at 23-25° C. The amount of β-FGF bound to heparin was detected using anti-FGF monoclonal antibody (Sigma Cat. # F6162) at a concentration of 2.5 ng/ml and secondary antibodies Sheep anti-mouse IgG linked to horseradish peroxidase (1:3000). TMB (Pierce Cat. #34021) was used as a substrate for peroxidase.
as §1

Another experiment concerns the target T3, pro-heparanase (H60) (Homo sapiens, UniProt Q9Y251, K307R).
T3 sequence (Q9Y251 36-543 K307R): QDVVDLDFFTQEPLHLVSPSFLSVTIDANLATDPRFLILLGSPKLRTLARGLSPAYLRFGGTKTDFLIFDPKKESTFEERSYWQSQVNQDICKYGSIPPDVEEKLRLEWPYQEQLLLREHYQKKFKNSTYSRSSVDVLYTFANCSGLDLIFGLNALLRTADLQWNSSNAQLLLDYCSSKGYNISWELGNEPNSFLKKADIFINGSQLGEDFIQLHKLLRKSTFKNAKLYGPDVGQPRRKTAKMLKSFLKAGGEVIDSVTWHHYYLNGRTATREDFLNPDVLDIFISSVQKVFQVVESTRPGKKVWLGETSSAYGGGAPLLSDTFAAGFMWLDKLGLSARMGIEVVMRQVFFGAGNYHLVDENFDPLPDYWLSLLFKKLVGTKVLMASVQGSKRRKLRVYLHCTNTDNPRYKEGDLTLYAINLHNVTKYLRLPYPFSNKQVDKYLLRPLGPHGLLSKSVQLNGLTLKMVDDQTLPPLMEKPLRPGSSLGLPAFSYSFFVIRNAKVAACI
In words: Surface plasmon resonance, interaction with the pro-heparanase polypeptide. The format is binding. As to conditions: data not shown. (Surface plasmon resonance follows binding to a sensor surface in real time, without labels.)

The target of experiment [1] is T4, pro-heparanase transiently expressed in 293 cells (Homo sapiens, UniProt Q9Y251, K307R).
T4 sequence (Q9Y251 36-543 K307R): T3 sequence (Q9Y251 36-543 K307R)
In words: Pro-heparanase processing in transiently transfected 293 cells (Western blot). The format is cell-based. Here is the method: Western blot analysis—Western blot analysis was performed using rabbit anti-heparanase polyclonal antibodies as described in U.S. Pat. Nos. 6,177,545; 6,531,129; and 6,562,950.
Transient transfections—293 cells (200,000) were plated onto a 6 well tissue culture plate. 24 hrs later, the cells were transfected with 1 μg pSI (Promega) hpa plasmid (U.S. Pat. No. 6,475,763) in 3 μl Fugene reagent that was pre-incubated for 15 min in 100 μl medium without serum. Cells were treated with inhibitors 4 and 17 hrs following transfection.
On the technique in general: In western blotting, separated proteins are transferred to a membrane and probed.

T2 sequence (P09038 143-288): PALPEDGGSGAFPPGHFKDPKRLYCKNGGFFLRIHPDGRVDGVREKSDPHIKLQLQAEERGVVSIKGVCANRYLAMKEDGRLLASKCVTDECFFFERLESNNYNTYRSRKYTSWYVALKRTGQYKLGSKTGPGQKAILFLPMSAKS

Usually IC50 stands for the midpoint of a concentration-inhibition curve. A high value points to a need for much substance. As for `O=C(O)CCCN1C(=O)C(=Cc2ccc(-c3ccc([N+](=O)[O-])cc3)o2)SC1=S` [Compound 5], the concentration for half-maximal inhibition (IC50) on VEGF turned out to be 3.2 µM; with HT1080 cells it was 12 µM; at β-FGF, 6.1 µM. For the same compound, on pro-heparanase (H60), the “binding to the H60 molecule” value is recorded as “reversibly bind”. Besides, in experiment [1], the pro-heparanase expression entry is recorded as “did not affect pro-heparanase expression”. For the same compound, in experiment [1], the pro-heparanase processing result is “completely inhibited pro-heparanase processing”.
